The values below come from EP1981504B1, “THIADIAZOLE DERIVATIVES FOR THE TREATMENT OF NEURO DEGENERATIVE DISEASES” (NV reMYND, priority 2006, dated 2007).

As usually defined, the EC50 is the midpoint of the concentration-response curve. Read a high EC50 as a less potent agent.

This assay deals with M17-SYNwt cells. Nature of the assay: α-synuclein cytotoxicity assay (LDH leakage from paraquat-treated α-synuclein over-expressing neuroblastoma cells). In kind it is cell-based, human. The following applies: for EC50: Homo sapiens, Neuroblastoma cell, 10 point curves in duplicate; for EC50 / %I: paraquat 32 mM, 40 hours, LDH release; for %I: percent inhibition of synuclein cytotoxicity at most effective concentration of test compound, relative to untreated paraquat cells. Summed up: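 M17 neuroblastoma cells over-expressing wild-type α-synuclein were challenged with paraquat, and cytotoxicity was read as LDH release. Protection was expressed as percent reduction of paraquat-induced LDH release relative to untreated paraquat cells and control cells. Actives were retested in 10-point duplicate dose responses.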
In general terms: LDH in the medium is a marker of cell lysis.

Converted amounts (≈) assume the structure as drawn.

Turning to `COc1ccc(S(=O)(=O)N2CCN(c3nc(Cc4cccc(OC)c4)ns3)CC2C)cc1` (stereo not drawn) [Compound 208, 1-[4-methoxyphenylsulfonyl]-4-[3-(3-methoxybenzyl)-1,2,4-thia-diazol-5-yl]-2-methyl-piperazine], the EC50 was 0.0034 µg/mL (≈ 0.00716 µM) and the “%I” value was found to be 92%.

In the case of `COc1ccc(S(=O)(=O)N2CCN(c3nc(Cc4ccc(F)c(C)c4)ns3)CC2)cc1` [Compound 204], a half-maximal effect (EC50) was put at 0.001 µg/mL (≈ 0.00216 µM) and the “%I” value stood at 90%.

Regarding `Cc1ccc(Cc2nsc(N3CCN(S(=O)(=O)c4cccc(C(F)(F)F)c4)C(C)C3)n2)cc1` (stereo not drawn) [Compound 56, 1-[3-trifluoromethylphenylsulfonyl]-4-[3-(4-methylbenzyl)-1,2,4-thiadiazol-5-yl]-2-methylpiperazine], the “%I” value stood at 87%.

With `Cc1ccccc1N1CCN(c2nc(Cc3ccc(F)cc3)ns2)CC1` [Compound 185, 1-(2-methylphenyl)-4-[3-(4-fluorobenzyl)-1,2,4-thiadiazol-5-yl]piperazine], the midpoint of the response, the EC50, lay at 0.38 µg/mL (≈ 1.03 µM) and the “%I” value came to 114%.

With `Cc1ccc(Cc2nsc(N3CCN(S(=O)(=O)c4cc(Cl)ccc4Cl)C(C)C3)n2)cc1` (stereo not drawn) [Compound 36, 1-[2,5-dichlorophenylsulfonyl]-4-[3-(4-methylbenzyl)-1,2,4-thiadiazol-5-yl]-2-methylpiperazine], it took 0.1 µg/mL (≈ 0.201 µM) to reach a half-maximal effect (EC50) and the “%I” value was found to be 52%.

Turning to `CC1CN(c2nc(Cc3ccc(F)cc3)ns2)CCN1C(=O)c1cccc(F)c1` (stereo not drawn) [Compound 179, 1-(3-fluorobenzoyl)-4-[3-(4-fluorobenzyl)-1,2,4-thiadiazol-5-yl]-2-methylpiperazine], the “%I” value is listed as 68%.

Take `Cc1ccc(S(=O)(=O)N2CCN(c3nc(Cc4ccc(Cl)cc4)ns3)CC2)cc1` [Compound 63, 1-[4-methylphenylsulfonyl]-4-[3-(4-chlorobenzyl)-1,2,4-thiadiazol-5-yl]piperazine]: a half-maximal effect (EC50) was put at 0.0807 µg/mL (≈ 0.18 µM) and the “%I” value amounted to 83%.

In the case of `CCCCc1ccc(C(=O)N2CCN(c3nc(Cc4ccc(C)cc4)ns3)CC2)cc1` [Compound 182, 1-(4-butylbenzoyl)-4-[3-(4-methylbenzyl)-1,2,4-thiadiazol-5-yl]piperazine], the “%I” value was 57%.

Turning to `COc1ccc(S(=O)(=O)N2CCN(c3nc(Cc4ccc(C)cc4)ns3)CC2C)cc1` (stereo not drawn) [Compound 60, 1-[4-methoxyphenylsulfonyl]-4-[3-(4-methylbenzyl)-1,2,4-thiadiazol-5-yl]-2-methylpiperazine], the EC50 was 0.0013 µg/mL (≈ 0.00283 µM) and the “%I” value is recorded as 93%.

As to `CC1CN(c2nc(Cc3ccc(F)cc3)ns2)CCN1C(=O)c1cccc(Cl)c1` (stereo not drawn) [Compound 122, 1-(3-chlorobenzoyl)-4-[3-(4-fluorobenzyl)-1,2,4-thiadiazol-5-yl]-2-methylpiperazine], a half-maximal effect (EC50) was put at 0.14 µg/mL (≈ 0.325 µM) and the “%I” value came to 92%.

For the compound `Cc1ccccc1C(=O)N1CCN(c2nc(Cc3ccc(F)cc3)ns2)CC1C` (stereo not drawn) [Compound 140, 1-(2-methylbenzoyl)-4-[3-(4-fluorobenzyl)-1,2,4-thiadiazol-5-yl]-2-methylpiperazine], the EC50 is 0.45 µg/mL (≈ 1.1 µM) and the “%I” value was 56%.

Take `CC1CN(c2nc(Cc3ccc(F)cc3)ns2)CCN1C(=O)Cc1ccccc1` (stereo not drawn) [Compound 5, 1-phenylacetyl-4-[3-(4-fluorobenzyl)-1,2,4-thiadiazol-5-yl]-2-methylpiperazine]: the “%I” value is 83%.

For `COc1ccc(C(=O)N2CCN(c3nc(Cc4ccc(F)cc4)ns3)CC2C)c(OC)c1` (stereo not drawn) [Compound 136, 1-(2,4-dimethoxybenzoyl)-4-[3-(4-fluorobenzyl)-1,2,4-thiadiazol-5-yl]-2-methylpiperazine], the 50% effective concentration (EC50) is 0.34 µg/mL (≈ 0.745 µM) and the “%I” value turned out to be 83%.

Regarding `Cc1ccc(Cc2nsc(N3CCN(C(=O)c4cccc(F)c4)CC3)n2)cc1` [Compound 162, 1-(3-flurorbenzoyl)-4-[3-(4-methylbenzyl)-1,2,4-thiadiazol-5-yl]piperazine], it took 3.4 µg/mL (≈ 8.58 µM) to reach a half-maximal effect (EC50) and the “%I” value came out at 101%.

Regarding `CC1CN(c2nc(Cc3ccccc3)ns2)CCN1C(=O)c1ccc(F)cc1` (stereo not drawn) [Compound 154, 1-(4-fluorobenzoyl)-4-[3-benzyl-1,2,4-thiadiazol-5-yl]-2-methylpiperazine], the EC50 is 1.58 µg/mL (≈ 3.98 µM) and the “%I” value turned out to be 75%.

On to `O=C(c1ccc(Cl)cc1)N1CCCN(c2nc(Cc3ccc(F)cc3)ns2)CC1` [Compound 189, 1-(4-chlorobenzoyl)-4-[3-(4-fluorobenzyl)-1,2,4-thiadiazol-5-yl]-1,4-diazepane], for which the EC50 worked out at 0.17 µg/mL (≈ 0.394 µM) and the “%I” value was 85%.

With `Cc1ccc(Cc2nsc(N3CCN(S(=O)(=O)c4ccc(F)cc4)CC3)n2)cc1` [Compound 57, 1-[4-fluorophenylsulfonyl]-4-[3-(4-methylbenzyl)-1,2,4-thiadiazol-5-yl]piperazine], the EC50 worked out at 0.0104 µg/mL (≈ 0.024 µM) and the “%I” value is 88%.

For the compound `Cc1ccc(Cc2nsc(N3CCN(S(=O)(=O)c4c(C)cc(C)cc4C)CC3)n2)cc1` [Compound 37, 1-[2,4,6-trimethylphenylsulfonyl]-4-[3-(4-methylbenzyl)-1,2,4-thiadiazol-5-yl]piperazine], the EC50 was determined as 0.0731 µg/mL (≈ 0.16 µM) and the “%I” value is 48%.

As to `COc1cccc(Cc2nsc(N3CCN(C(=O)c4ccc(C)cc4)C(C)C3)n2)c1` (stereo not drawn) [Compound 124, 1-(4-methylbenzoyl)-4-[3-(3-methoxybenzyl)-1,2,4-thiadiazol-5-yl]-2-methylpiperazine], a half-maximal effect (EC50) was put at 0.14 µg/mL (≈ 0.331 µM) and the “%I” value is listed as 57%.

Consider `Cc1ccc(Cc2nsc(N3CCN(S(=O)(=O)c4ccc5ccccc5c4)CC3)n2)cc1` [Compound 65, 1-[2-naphtylsulfonyl]-4-[3-(4-methylbenzyl)-1,2,4-thiadiazol-5-yl]piperazine], for which the response was half-maximal at 0.0393 µg/mL (≈ 0.0845 µM) (EC50) and the “%I” value is 78%.

On to `Cc1ccc(Cc2nsc(N3CCN(C(=O)c4ccc5c(c4)OCO5)C(C)C3)n2)cc1` (stereo not drawn) [Compound 161, 1-(1,3-benzodioxol-5-ylcarbonyl)-4-[3-(4-methylbenzyl)-1,2,4-thiadiazol-5-yl]-2-methyl+B176piperazine], for which it took 3.36 µg/mL (≈ 7.7 µM) to reach a half-maximal effect (EC50) and the “%I” value is listed as 101%.

As for `CCCCCCc1ccc(C(=O)N2CCN(c3nc(Cc4ccc(F)cc4)ns3)CC2)cc1` [Compound 121, 1-(4-hexylbenzoyl)-4-[3-(4-fluorobenzyl)-1,2,4-thiadiazol-5-yl]piperazine], the EC50 is 0.12 µg/mL (≈ 0.257 µM) and the “%I” value amounted to 64%.

Take `O=S(=O)(c1cc(Cl)ccc1Cl)N1CCN(c2nc(Cc3ccc(Cl)cc3)ns2)CC1` [Compound 39, 1-[2,5-dichlorophenylsulfonyl]-4-[3-(4-chlorobenzyl)-1,2,4-thiadiazol-5-yl]piperazine]: a half-maximal effect (EC50) was put at 0.16 µg/mL (≈ 0.318 µM) and the “%I” value came to 25%.

On to `Cc1ccc(Cc2nsc(N3CCN(C(=O)Cc4ccc(F)cc4)C(C)C3)n2)cc1` (stereo not drawn) [Compound 3, 1-(4-fluorophenylacetyl)-4-[3-(4-methylbenzyl)-1,2,4-thiadiazol-5-yl]-2-methylpiperazine], for which the EC50 stood at 2.2 µg/mL (≈ 5.18 µM) and the “%I” value stood at 76%.

As for `CC(=O)Nc1ccc(S(=O)(=O)N2CCN(c3nc(Cc4ccc(C)cc4)ns3)CC2C)cc1` (stereo not drawn) [Compound 48, 1-[4-acetamidophenylsulfonyl]-4-[3-(4-methylbenzyl)-1,2,4-thiadiazof-5-yl]-2-methylpiperazine], a half-maximal effect (EC50) was put at 0.00844 µg/mL (≈ 0.0174 µM) and the “%I” value amounted to 91%.

`Cc1cccc(C)c1NC(=O)N1CCN(c2nc(Cc3ccc(F)cc3)ns2)CC1C` (stereo not drawn) [Compound 19, N-(2,6-dimethylphenyl)-4-[3-(4-fluorobenzyl)-1,2,4-thiadiazol-5-yl]-2-methylpiperazine-1-carboxamide]: the EC50 came out at 0.2 µg/mL (≈ 0.455 µM) and the “%I” value is given as 95%. Moreover, where the note is “Figure 2, dose response in paraquat-treated M17-SYNwt cells”, the “LDH activity in the medium” value is given as “able, in a dose-dependent manner, to reduce LDH activity in the medium”.

As to `Fc1ccc(Cc2nsc(N3CCN(c4cccc(C(F)(F)F)c4)CC3)n2)cc1` [Compound 188, 1-(3-trifluoromethylphenyl)-4-[3-(4-fluorobenzyl)-1,2,4-thiadiazol-5-yl]piperazine], the “%I” value is 96%.

For the compound `CC1CN(c2nc(Cc3ccc(F)cc3)ns2)CCN1C(=O)c1ccc(-c2ccccc2)cc1` (stereo not drawn) [Compound 129, 1-(1,1'-biphenyl-4-ylcarbonyl)-4-[3-(4-fluorobenzyl)-1,2,4-thiadiazol-5-yl]-2-methylpiperazine], the response was half-maximal at 0.24 µg/mL (≈ 0.508 µM) (EC50) and the “%I” value came to 61%.

Take `Cc1ccc(Cc2nsc(N3CCN(C(=O)c4ccccc4F)C(C)C3)n2)cc1` (stereo not drawn) [Compound 149, 1-(2-fluorobenzoyl)-4-[3-(4-methylbenzyl)-1,2,4-thiadiazol-5-yl]-2-methylpiperazine]: a half-maximal response (EC50) required 0.98 µg/mL (≈ 2.39 µM) and the “%I” value was determined as 105%.

Turning to `O=C(Cc1ccc(F)cc1)N1CCN(c2nc(Cc3ccc(F)cc3)ns2)CC1` [Compound 2, 4-(4-fluorophenylacetyl),1-[3-(4-fluorobenzyl)-1,2,4-thiadiazol-5-yl]piperazine], the EC50 was determined as 0.25 µg/mL (≈ 0.603 µM) and the “%I” value stood at 54%.

As for `CCCCCCc1ccc(C(=O)NCCN2CCN(c3nc(Cc4ccc(F)cc4)ns3)CC2)cc1` [Compound 96, 4-hexyl-N-{2-[4-[3-(4-fluorobenzyl)-1,2,4-thiadiazol-5-yl]piperazin-1-yl]ethyl}benzamide], the EC50 came out at 0.8 µg/mL (≈ 1.57 µM) and the “%I” value came to 72%.

On to `COc1cccc(Cc2nsc(N3CCN(C(=O)c4ccc(Cl)cc4)C(C)C3)n2)c1` (stereo not drawn) [Compound 174, 1-(4-chlorobenzoyl)-4-[3-(3-methoxybenzyl)-1,2,4-thiadiazol-5-yl]-2-methylpiperazine], for which the “%I” value was 83%.

In the case of `Cc1ccc(Cc2nsc(N3CCN(S(=O)(=O)c4ccc([N+](=O)[O-])cc4)C(C)C3)n2)cc1` (stereo not drawn) [Compound 71, 1-[4-nitrophenylsulfonyl]-4-[3-(4-methylbenzyl)-1,2,4-thiadiazol-5-yl]-2-methylpiperazine], the “%I” value was 33%.
